# Article PMC5386260, “Acute development of cortical porosity and endosteal naïve bone formation from the daily but not weekly short-term administration of PTH in rabbit” (PLoS ONE, 2017)
# Like-named read-outs stand apart in the source and are kept apart here.
# What was measured:
# [1] = Plasma TPTD concentration and pharmacokinetics (Rat PTH IRMA Kit, non-compartmental model); format: in vivo, rabbit; details: for level at 2 h / level at 5 min / level at 0.25 h / level at 0.5 h / level at 1 h: female, New Zealand White (Kbl:NZW), rabbit, plasma, sc, IRMA, mean; for AUC / Cmax / Tmax / half-life: in vivo; for half-life: read-out: T1/2 (elimination half-life) of plasma TPTD (converted)
# Excerpt: Seventeen female New Zealand White rabbits (Kbl:NZW) were purchased from Kitayama Labs (Nagano, Japan) and were allowed to acclimatize with free access to water and food for 6 days before use. Throughout the experimental study, the animals were housed individually under a 12-h light/dark cycle with free access to water, but their food intake was restricted to 120g /day (LRC4, standard diet for rabbits; Oriental Yeast, Tokyo, Japan). The animals at 6 months of age were divided into 5 groups and were subcutaneously injected with 20 or 40 μg/kg of TPTD once-daily (D20 group [n = 3] and D40 group [n = 3], 140 or 280 μg/kg of TPTD once-weekly (W140 group [n = 3] and W280 group [n = 4]) for four weeks (Table 1). For the high-dose administration of TPTD, the dosage in once-daily treatment was set at 40 μg/kg/day based on a previous study, while the dosage of once-weekly TPTD treatment was set at 280 μg/kg/week; thus, the cumulative dose of TPTD each week was the same with the two treatment frequencies. In the W140 and W280 groups, saline was administered every day, except for the days on which TPTD was administered. Saline injections were administered to control animals (C group, n = 4) once daily and to each group as a vehicle.
# […] The samples were centrifuged at 1600 x g, at 4°C for 10 minutes and plasma samples were collected in order to measure the concentration of TPTD. […]
# Teriparatide acetate was synthesized at Asahi Kasei Pharma Corporation (Tokyo, Japan) and was used as a standard substance. The teriparatide acetate concentration in the rabbit plasma was quantified using a Rat PTH IRMA Kit (Immutopics, Inc., San Clemente, CA) according to the manufacturer’s instructions. The pharmacokinetic parameters were calculated using a non-compartmental model (Phoenix WinNonlin; Pharsight, Mountain View, CA).
# [2] = system: endosteal surface of rabbit tibiae; assay: DIC bright field and deconvolution fluorescence imaging of tibia sections; format: in vivo; details: daily administration (D20 and D40), 4 weeks
# Method: Calcein (Dojindo Laboratories, Kumamoto, Japan) was subcutaneously injected into each animal at a dose of 10 mg/kg body weight on days 13 and 5 before sacrifice for bone double labeling (1-7-1-3). After the dosing period, the animals were euthanized by exsanguination under anesthesia using thiopental. The left and right tibiae were collected for a micro-CT analysis and histomorphometry, respectively. The kidneys, thyroid and parathyroid of all animals were collected and fixed in 10% neutral buffered formalin for a histopathological examination. The left tibiae were packed in plastic bags and stored at -30°C until use in a micro-CT analysis and mechanical testing. […]
# Calcein-labeled undecalcified bone sections were subjected to imaging acquisition using a microscopy system, ECLIPSE Ni (Nikon, Tokyo, Japan) equipped with differential interference contrast microscopy (DIC) and objectives (Nikon), as follows: Plan Apo λ 10x (numerical aperture [N.A.] = 0.45), Plan Apo λ 20x (N.A. = 0.75), and Plan Apo λ 40x (N.A. = 0.95). The fluorescence signals were obtained using filter sets, GFP-B (excitation: 460–500 nm, DM: 505 nm, emission: 510–560 nm; Nikon) for calcein, and TxRed (excitation: 540–580 nm, DM: 595 nm, emission: 600–660 nm; Nikon) for auto-fluorescence derived from soft tissue. […] The fluorescence and DIC images were sequentially acquired, with a pixel size of 0.64 μm. […]
# [3] = 20 ug/kg, rabbit plasma, D20 (20 μg/kg sc once-daily), n=3, mean ± SD
# [4] = 40 ug/kg, rabbit plasma, D40 (40 μg/kg sc once-daily), n=3, mean ± SD
# [5] = 140 ug/kg, rabbit plasma, W140 (140 μg/kg sc once-weekly), n=3, mean ± SD
# [6] = 280 ug/kg, rabbit plasma, W280 (280 μg/kg sc once-weekly), n=4, mean ± SD
smiles,measurement,setting,value
"CC[C@H](C)[C@H](NC(=O)[C@H](CCC(=O)O)NC(=O)[C@H](CO)NC(=O)[C@@H](NC(=O)[C@@H](N)CO)C(C)C)C(=O)N[C@@H](CCC(N)=O)C(=O)N[C@@H](CC(C)C)C(=O)N[C@@H](CCSC)C(=O)N[C@@H](Cc1cnc[nH]1)C(=O)N[C@@H](CC(N)=O)C(=O)N[C@@H](CC(C)C)C(=O)NCC(=O)N[C@@H](CCCCN)C(=O)N[C@@H](Cc1cnc[nH]1)C(=O)N[C@@H](CC(C)C)C(=O)N[C@@H](CC(N)=O)C(=O)N[C@@H](CO)C(=O)N[C@@H](CCSC)C(=O)N[C@@H](CCC(=O)O)C(=O)N[C@@H](CCCN=C(N)N)C(=O)N[C@H](C(=O)N[C@@H](CCC(=O)O)C(=O)N[C@@H](Cc1c[nH]c2ccccc12)C(=O)N[C@@H](CC(C)C)C(=O)N[C@@H](CCCN=C(N)N)C(=O)N[C@@H](CCCCN)C(=O)N[C@@H](CCCCN)C(=O)N[C@@H](CC(C)C)C(=O)N[C@@H](CCC(N)=O)C(=O)N[C@@H](CC(=O)O)C(=O)N[C@H](C(=O)N[C@@H](Cc1cnc[nH]1)C(=O)N[C@@H](CC(N)=O)C(=O)N[C@@H](Cc1ccccc1)C(=O)O)C(C)C)C(C)C [TPTD, Teriparatide]",level at 2 h,"[1]; 140 ug/kg, Day 22, 2 hour, W140 (140 μg/kg sc once-weekly), n=3",37.8 ng/mL
same,level at 5 min,"[1]; 280 ug/kg, Day 1, 5 min, W280 (280 μg/kg sc once-weekly), n=4",60.6 ng/mL
same,level at 0.25 h,"[1]; 280 ug/kg, Day 1, 15 min, W280 (280 μg/kg sc once-weekly), n=4",177 ng/mL
same,level at 0.5 h,"[1]; 280 ug/kg, Day 1, 30 min, W280 (280 μg/kg sc once-weekly), n=4",295 ng/mL
same,level at 1 h,"[1]; 280 ug/kg, Day 1, 1 hour, W280 (280 μg/kg sc once-weekly), n=4",255 ng/mL
same,level at 2 h,"[1]; 280 ug/kg, Day 1, 2 hour, W280 (280 μg/kg sc once-weekly), n=4",87.4 ng/mL
same,level at 5 min,"[1]; 280 ug/kg, Day 22, 5 min, W280 (280 μg/kg sc once-weekly), n=4",67.7 ng/mL
same,level at 0.25 h,"[1]; 280 ug/kg, Day 22, 15 min, W280 (280 μg/kg sc once-weekly), n=4",232 ng/mL
same,level at 0.5 h,"[1]; 280 ug/kg, Day 22, 30 min, W280 (280 μg/kg sc once-weekly), n=4",356 ng/mL
same,level at 1 h,"[1]; 280 ug/kg, Day 22, 1 hour, W280 (280 μg/kg sc once-weekly), n=4",280 ng/mL
same,level at 2 h,"[1]; 280 ug/kg, Day 22, 2 hour, W280 (280 μg/kg sc once-weekly), n=4",62.4 ng/mL
same,AUC,[1]; [3],21.1 ± 3.67 ng·h/mL
same,Cmax,[1]; [3],19.8 ± 5.67 ng/mL
same,Tmax,[1]; [3],30 min
same,half-life,"[1]; 20 ug/kg, rabbit plasma, D20 (20 μg/kg sc once-daily), n=3, non-compartmental, mean ± SD",26.4 ± 9 min
same,AUC,[1]; [4],46.8 ± 10.7 ng·h/mL
same,Cmax,[1]; [4],34.3 ± 8.19 ng/mL
same,Tmax,[1]; [4],30 min
same,half-life,"[1]; 40 ug/kg, rabbit plasma, D40 (40 μg/kg sc once-daily), n=3, non-compartmental, mean ± SD",55.8 ± 19.2 min
same,AUC,[1]; [5],188 ± 35.5 ng·h/mL
same,Cmax,[1]; [5],133 ± 28 ng/mL
same,Tmax,[1]; [5],40.2 ± 17.4 min
same,half-life,"[1]; 140 ug/kg, rabbit plasma, W140 (140 μg/kg sc once-weekly), n=3, non-compartmental, mean ± SD",55.8 ± 9.6 min
same,AUC,[1]; [6],390 ± 75.6 ng·h/mL
same,Cmax,[1]; [6],315 ± 67.8 ng/mL
same,Tmax,[1]; [6],45 ± 17.4 min
same,half-life,"[1]; 280 ug/kg, rabbit plasma, W280 (280 μg/kg sc once-weekly), n=4, non-compartmental, mean ± SD",41.4 ± 16.2 min
same,Tmax post-dose,"[1]; rabbit plasma, D20 (20 μg/kg sc once-daily)",30 min
same,Tmax post-dose,"[1]; rabbit plasma, D40 (40 μg/kg sc once-daily)",30 min
same,estimated Tmax post-dose,"[1]; rabbit plasma, W140 (140 μg/kg sc once-weekly)",40 min
same,T1/2 (elimination half-life) of plasma TPTD,"[1]; rabbit plasma, W140 (140 μg/kg sc once-weekly), n=3, non-compartmental, mean ± SD",55.8 ± 9.6 min
same,estimated Tmax post-dose,"[1]; rabbit plasma, W280 (280 μg/kg sc once-weekly)",45 min
same,microscopic findings at the endosteal surface,[2],development of bone marrow fibrosis and poorly mineralized and disorganized bone formation
